In patent US10087173B2, “Substituted aminothiazoles as inhibitors of cancers, including hepatocellular carcinoma, and as inhibitors of hepatitis virus replication” (BARUCH S. BLUMBERG INSTITUTE, priority 2011, dated 2018):
Where two headings read alike, the source gives them in different places.

Experiments:
Assay type in all cases: cell-based
Huh7 cells = assay: MTT cell viability assay, Huh7 cells, 72 h; settings: read-out: Huh7 CC50
Source text: (§1) Huh-7 cells and derived from hepatocellular carcinoma cells, and were donated by Dr. Xuanyong Lu, (Drexel University College of Medicine, Doylestown, Pa.). THLE-2 were purchased from American Type Culture Collection (Manassas, Va.). PH5CH were donated by Dr. Masayuki Noguchi (University of Tsukuba, Ibaraki, Japan). THLE-2 and PH5CH have been immortalized through stable transfection of the SV40 large T antigen in normal hepatocytes, and are thus cell lines that are representative of normal hepatocytes rather than HCC cells. THLE2 have been confirmed to not form tumors in athymic mice. All cell lines were cultured and maintained in 5% CO2 at 37° C. Huh-7 were maintained in the culture media DMEM/F12 (Dulbecco's Modified Eagle Medium) with 10% Fetal bovine serum (FBS), 100 μg/mL penicillin, 100 units/mL streptomycin, and 50 μg/mL normocin. THLE-2 and PH5CH were maintained in the culture media Brochial Epithelial Growth Media (BEGM) with 10% FBS, 100 μg/mL penicillin, 100 units/mL streptomycin, with the following additives form the prepackaged kit: Bovine pituitary extract (BPE), insulin, hydrocortisone, retinoic acid, transferrin, triiodothyronine, supplemented with 5 ng/ml human epidermal growth factor and 70 ng/ml phosphoethanolamine (Lonza Walkersville Inc., Walkersville, Md.).
(§2) Huh7 cells were plated on 96-well plates at 2.0×10^4 cells per well to permit grow in the presence of compounds of the disclosure. Compounds of the disclosure were prediluted and transferred to cell plates by automated liquid handling. Cells were incubated with compounds of the disclosure for 72 hours, after which culture growth and viability were assessed by addition of 50 μg/mL 3-(4,5-Dimethyl-2-thiazolyl)-2,5-diphenyl-2H-tetrazolium bromide (MTT) incubation for 4 hours at 37° C. Solubilization buffer (0.01M HCl, 10% SDS) was added followed by incubation at 37° C. overnight. Absorbance was measured at 570 nm (reference 630 nm). Compound of the disclosure were tested in Huh7, THLE-2 and PH5CH, over eight-point dilutions in half-log steps, testing 50.0, 16.6, 5.0, 1.66, 0.5, 0.166, 0.05, and 0.016 μM in 0.5% DMSO, with each concentration in duplicate wells. […] Each compound was tested from 2 to 7 times in separate assay trials.

[1] = MTT cell viability assay, THLE2 cells, 72 h; settings: human, immortalized normal hepatocytes THLE2, 72 hours, 0.016-50.0 μM tested
Source text: as §1, with “THLE2 have been confirmed to not form tumors in athymic mice.” left out
as §2
(§3) Selectivity of toxicity in HCC-derived cells over normal liver-derived cells is important for the purposes of developing a therapy that specifically targets the cancer with low toxicity for […]. The Selective Index (SI) is the ratio of CC50 in normal cells (THLE2 or PH5CH) over the CC50 in the liver cancer derived cells; thus, the higher the number, the lower the potential toxicity at an efficacious dose.

[2] = MTT cell viability assay, PH5CH cells, 72 h; settings: human, immortalized normal hepatocytes PH5CH, 0.016-50.0 μM tested
Source text: as §1, §2, §3

THLE2 cells = assay: MTT cell viability assay, THLE2 cells, 72 h; settings: immortalized normal hepatocytes THLE2, 72 hours, 0.016-50.0 μM tested
Source text: as §1, with “THLE2 have been confirmed to not form tumors in athymic mice.” left out
as §2, §3

PH5CH cells = assay: MTT cell viability assay, PH5CH cells, 72 h; settings: immortalized normal hepatocytes PH5CH, 0.016-50.0 μM tested
Source text: as §1, §2, §3

[3] = Homo sapiens, Huh-7, hepatocellular carcinoma derived Huh7 cells, 72 hours, MTT, 0.016-50.0 μM tested

Row | SMILES | CC50 (Huh7 cells; [3]) | CC50 at 72 h [1] | CC50 at 72 h [2] | CC50 (Huh7 cells; Homo sapiens, Huh-7, 72 h) | CC50 (Huh7 cells; hepatocellular carcinoma derived Huh7 cells, 72 hours, MTT, 0.016-50.0 μM tested) | CC50 (THLE2 cells) | CC50 (PH5CH cells)
1 | c1ccc(-c2csc(Nc3ncccn3)n2)nc1 [Entry 1] | 1.39 µM | 40 µM | ≥ 50 µM | – | – | – | –
2 | c1ccc(-c2csc(Nc3ncccn3)n2)cc1 [Entry 3] | 6.43 µM | 9.16 µM | – | – | – | – | –
3 | c1cnc(Nc2nc(-c3cccnc3)cs2)nc1 [Entry 4] | 6.3 µM | 8.66 µM | – | – | – | – | –
4 | c1cnc(Nc2nc(-c3ccncc3)cs2)nc1 [Entry 5] | 14.2 µM | 48.5 µM | – | – | – | – | –
5 | c1ccc(Nc2nc(-c3ccccn3)cs2)cc1 [Entry 6] | 6.53 µM | – | – | – | – | – | –
6 | c1ccc(Nc2nc(-c3ccccc3)cs2)cc1 [Entry 7] | 10.3 µM | 21.1 µM | – | – | – | – | –
7 | Cc1ccnc(-c2csc(Nc3ncccn3)n2)c1 [Entry 8] | 0.563 µM | 14 µM | 34 µM | – | – | – | –
8 | Brc1sc(Nc2ncccn2)nc1-c1ccccn1 [Entry 9] | 2.53 µM | 29.9 µM | – | – | – | – | –
9 | Brc1cccc(-c2csc(Nc3ncccn3)n2)n1 [Entry 10] | 7.82 µM | 9.75 µM | – | – | – | – | –
10 | c1ccc(-c2csc(Nc3cnccn3)n2)nc1 [Entry 11] | 5 µM | 0.539 µM | – | – | – | – | –
11 | c1ccc(-c2csc(Nc3ccncn3)n2)nc1 [Entry 12] | 3.05 µM | 4.47 µM | – | – | – | – | –
12 | Clc1cnc(Nc2nc(-c3ccccn3)cs2)nc1 [Entry 13] | 35 µM | ≥ 50 µM | – | – | – | – | –
13 | Brc1cnc(Nc2nc(-c3ccccn3)cs2)nc1 [Entry 14] | 31.8 µM | 41 µM | – | – | – | – | –
14 | CN(c1ncccn1)c1nc(-c2ccccn2)cs1 [Entry 15] | 5.32 µM | 49.1 µM | 49.7 µM | – | – | – | –
15 | CC(C)N(c1ncccn1)c1nc(-c2ccccn2)cs1 [Entry 16] | – | ≥ 50 µM | ≥ 50 µM | 25.7 µM | – | – | –
16 | OCCN(c1ncccn1)c1nc(-c2ccccn2)cs1 [Entry 17] | 48.9 µM | ≥ 50 µM | ≥ 50 µM | – | – | – | –
17 | c1ccc(CN(c2ncccn2)c2nc(-c3ccccn3)cs2)cc1 [Entry 18] | ≥ 50 µM | 49.8 µM | 46.9 µM | – | – | – | –
18 | CCOC(=O)c1sc(Nc2ncccn2)nc1-c1ccccn1 [Entry 19] | 0.362 µM | 38.7 µM | 44 µM | – | – | – | –
19 | OCc1sc(Nc2ncccn2)nc1-c1ccccn1 [Entry 20] | 11.3 µM | 31.1 µM | 46.9 µM | – | – | – | –
20 | CCc1sc(Nc2ncccn2)nc1-c1ccccn1 [Entry 21] | 15.4 µM | 24.7 µM | 44.1 µM | – | – | – | –
21 | Cc1sc(Nc2ncccn2)nc1-c1ccccn1 [Entry 22] | 5.92 µM | 42.9 µM | 42 µM | – | – | – | –
22 | Cc1ccc2nc(Nc3nc(-c4ccccn4)cs3)sc2c1 [Entry 23] | 4.92 µM | 3.96 µM | 3.97 µM | – | – | – | –
23 | CC(C)c1sc(Nc2ncccn2)nc1-c1ccccn1 [Entry 24] | – | ≥ 50 µM | ≥ 50 µM | 11.3 µM | – | – | –

Row | SMILES | CC50 (Huh7 cells; [3]) | CC50 at 72 h [1] | CC50 at 72 h [2] | CC50 (Huh7 cells; Homo sapiens, Huh-7, 72 h) | CC50 (Huh7 cells; hepatocellular carcinoma derived Huh7 cells, 72 hours, MTT, 0.016-50.0 μM tested) | CC50 (THLE2 cells) | CC50 (PH5CH cells)
24 | CCCCCc1sc(Nc2ncccn2)nc1-c1ccccn1 [Entry 25] | 25.9 µM | ≥ 50 µM | ≥ 50 µM | – | – | – | –
25 | Cc1cnc(-c2csc(Nc3ncccn3)n2)c(C)c1 [Entry 27] | 2.74 µM | 2.23 µM | 47.6 µM | – | – | – | –
26 | Oc1cccc(-c2csc(Nc3ncccn3)n2)n1 [Entry 28] | 46.2 µM | ≥ 50 µM | ≥ 50 µM | – | – | – | –
27 | N#Cc1sc(Nc2ncccn2)nc1-c1ccccn1 [Entry 29] | – | – | – | – | ≤ 0.016 µM | ≥ 50 µM | ≥ 50 µM
28 | Cc1ccnc(Nc2nc(-c3ccccn3)cs2)n1 [Entry 30] | ≥ 50 µM | ≥ 50 µM | ≥ 50 µM | – | – | – | –
29 | CCOC(=O)c1sc(Nc2nccc(C)n2)nc1-c1ccccn1 [Entry 31] | ≤ 0.016 µM | ≥ 50 µM | ≥ 50 µM | – | – | – | –
30 | c1cnc(Nc2nc(-c3ccc4ccccc4n3)cs2)nc1 [Entry 32] | ≥ 50 µM | 8.02 µM | ≥ 50 µM | – | – | – | –
31 | c1ccc(-c2nc(Nc3ncccn3)sc2C2CCCCC2)nc1 [Entry 33] | ≥ 50 µM | 3.54 µM | ≥ 50 µM | – | – | – | –
32 | FC(F)(F)c1ccnc(Nc2nc(-c3ccccn3)cs2)n1 [Entry 34] | 26.6 µM | 37.8 µM | ≥ 50 µM | – | – | – | –
33 | CCOC(=O)c1sc(Nc2ncccn2)nc1-c1cc(C)ccn1 [Entry 35] | 4.72 µM | 37.2 µM | 39.2 µM | – | – | – | –
34 | CCOC(=O)c1sc(Nc2ncccn2)nc1-c1cccc(C)n1 [Entry 36] | ≥ 50 µM | ≥ 50 µM | ≥ 50 µM | – | – | – | –
35 | O=C(NCc1ccccc1)c1sc(Nc2ncccn2)nc1-c1ccccn1 [Entry 37] | 17.7 µM | ≥ 50 µM | 31.5 µM | – | – | – | –
36 | COC(=O)c1sc(Nc2ncccn2)nc1-c1ccccn1 [Entry 38] | 1.25 µM | 29.4 µM | 38.6 µM | – | – | – | –
37 | CNC(=O)c1sc(Nc2ncccn2)nc1-c1ccccn1 [Entry 39] | 13 µM | 10.3 µM | 2.89 µM | – | – | – | –
38 | CN(Cc1cnc2nc(N)nc(N)c2n1)c1ccc(C(=O)NC(CCC(=O)NCCOCCOCCOCCOCCOCCNC(=O)c2sc(Nc3ncccn3)nc2-c2ccccn2)C(=O)OC(C)(C)C)cc1 (stereo not drawn) [Entry 40] | 34.8 µM | ≥ 50 µM | ≥ 50 µM | – | – | – | –
39 | NC(=O)c1sc(Nc2ncccn2)nc1-c1ccccn1 [Entry 41] | ≥ 50 µM | 26.6 µM | ≥ 50 µM | – | – | – | –
40 | CC(=O)OCc1sc(Nc2ncccn2)nc1-c1ccccn1 [Entry 42] | 39.3 µM | ≥ 50 µM | ≥ 50 µM | – | – | – | –
41 | CCCC(=O)OCc1sc(Nc2ncccn2)nc1-c1ccccn1 [Entry 43] | 11 µM | ≥ 50 µM | ≥ 50 µM | – | – | – | –
42 | CC(C)(C)OC(=O)c1sc(N(c2ncccn2)C(C)(C)C)nc1-c1ccccn1 [Entry 44] | – | ≥ 50 µM | ≥ 50 µM | 20.5 µM | – | – | –
43 | Oc1cccc(Nc2nc(-c3ccccc3)cs2)c1 [Entry 45] | 8 µM | ≥ 50 µM | – | – | – | – | –
44 | Cc1c(Cl)cccc1Nc1nc(-c2ccccn2)cs1 [Entry 46] | 3.5 µM | – | – | – | – | – | –
45 | N#Cc1sc(Nc2ncccn2)nc1-c1ccccn1 [Entry 47] | ≤ 0.016 µM | ≥ 50 µM | ≥ 50 µM | – | – | – | –
